A value given as a limit tells only on which side of the number the result lay.

Experiment [1] has as its system 5-HT2 receptor. Briefly: DOI-induced head twitch model in mice. The settings on record: compound orally 0.5 hr before DOI. It counts as in vivo.
For experiment [2], the system named is NMDA-induced currents in rat mPFC. Briefly: NMDA-induced currents in rat mPFC slices, whole-cell patch clamp. It counts as cell-based.
Experiment [3] has as its system AMPA-induced currents in rat mPFC. Briefly: AMPA-induced currents in rat mPFC slices, whole-cell patch clamp. The format is cell-based. As to the method:
Combined administration of the antipsychotic, olanzapine, and the SSRI, fluoxetine, similarly induces rapid antidepressant activity in humans and animals (Tohen et al., 2010); likewise, combined application of olanzapine and fluoxetine is required to induce AMPA receptor currents in vitro.
In contrast, the antipsychotic drug olanzapine, is found to enhance AMPA-induced currents only in the presence of the SSRI fluoxetine. 3 nM olanzapine alone results in about 100% of the AMPA-induced current of the control, while 100 nM fluoxetine results in about 90% of the AMPA-induced current of the control. However, the combination of 3 nM olanzapine and 100 nM fluoxetine is found to synergistically result in almost 150% of the AMPA-induced current of control. When SCH 23390 (1 μM) is combined with the olanzapine and fluoxetine, however, the AMPA-induced current returns to approximately 100% of the control level.
(The patch-clamp technique gives a direct electrical read-out from membranes.)

The test system of experiment [4] is mTORC1 signaling pathway. Briefly: Phosphorylation of mTOR pathway proteins in rat PFC. The format is in vivo. The settings on record: for mTOR phosphorylation (Serine 2448) / increase in phosphorylation of AKT at thr308 / p70s6K phosphorylation (Threonine 389): rat PFC, 30 mg/kg ketamine or 3 mg/kg Formula A i.p.; for increase in phosphorylation of AKT at thr308: both 1 hour and 24 hours post-administration; for p70s6K phosphorylation (Threonine 389): over 24 hours.

A short description of experiment [5]: Clinical studies in patients with acute exacerbated schizophrenia. The format is in vivo, human. The settings on record: 60 mg P.O. once daily up to 28 days. From the text: Social avoidance can be a critical and debilitating symptom in patients suffering from anxiety disorders, especially social anxiety disorder, as well as in patients suffering from traumatic anxiety disorders. Social avoidance is often one of the key determinants of whether a person with a severe anxiety disorder is capable of maintaining familial relationships or employment relationships. […] Negative symptoms of schizophrenia can be divided into two categories: emotional experience (e.g., emotional withdrawal, passive social withdrawal, active social avoidance) and emotional expression (e.g., blunted effect, poor rapport, lack of spontaneity, and motor retardation). […] These are the symptoms that are most highly correlated with interpersonal functioning.

The target in experiment [6] is Mu opiate receptor (Homo sapiens (Human), UniProt P35372). Briefly: biochemical.
The conditions of experiment [7]: 40-minute infusion, total dose 0.5 mg/kg; after 24 hours; cited from earlier work.

`O=C1CN2c3c(cccc3[C@@H]3CN(CCCOc4ccc(F)cc4)CC[C@@H]32)N1` [Example 1, (6bR,10aS)-8-(3-(4-fluorophenoxy)propyl)-6b,7,8,9,10,10a-hexahydro-1H-pyrido[3′,4′:4,5]pyrrolo[1,2,3-de]quinoxalin-2(3H)-one]: the “EC50 for reducing DOI-induced head twitches” value in experiment [1] is given as 0.44 mg/kg, p.o.
A word on the Ki: it is the equilibrium dissociation constant of an inhibitor or competing ligand from its target. Low values mean tighter binding, high ones weaker binding. Consider `CN1CCN2c3c(cccc31)[C@@H]1CN(CCCC(=O)c3ccc(F)cc3)CC[C@@H]12` [Formula A, lumateperone], for which the “NMDA-induced currents compared to control” value in experiment [2] (30 nM) was about 150%. Moreover, the “NMDA-induced currents compared to control” value in experiment [2] (Formula A 30 nM combined with SCH 23390 (1 μM)) is “about 90 % of control”. Further, the “AMPA-induced currents compared to control” value in experiment [3] (Formula A 30 nM, alone and with SCH 23390 (1 μM), rat mPFC) is “Substantially the same results”. Moreover, the “activation of the mTORC1 signaling pathway in mPFC” value in experiment [4] (adult rats, 1 to 8 mg/kg i.p., 60 min, 90 min or 24 hours) was “rapidly activates the mTORC1 signaling pathway”. In addition, in experiment [4], the “mTOR phosphorylation (Serine 2448)” value is reported as “Neither ketamine nor the Compound of Formula A results in a change”, the “increase in phosphorylation of AKT at thr308” value was about 50% and the “p70s6K phosphorylation (Threonine 389)” value is “progressively increases”. The “symptoms of emotional experience compared to placebo” value in experiment [5] was “significant and unexpected improvement”. The molecule further had an inhibitory constant (Ki) in experiment [6] of over 10 µM.
Consider `CNCCC(Oc1ccc(C(F)(F)F)cc1)c1ccccc1` (stereo not shown) [fluoxetine], for which the “AMPA-induced current of the control” value in experiment [3] (100 nM fluoxetine) is on record as “about 90%”.
In the case of `CNC1(c2ccccc2Cl)CCCCC1=O` (stereo not shown) [ketamine], in experiment [4], the “mTOR phosphorylation (Serine 2448)” value is given as “Neither ketamine nor the Compound of Formula A results in a change”, the “increase in phosphorylation of AKT at thr308” value is on record as about 50% and the “p70s6K phosphorylation (Threonine 389)” value is “transiently increase”. The “ratings on the Hamilton Depression Rating Scale (HDRS) compared to placebo” value in experiment [7] is reported as “significantly improved ratings”.
In the case of `Cc1cc2c(s1)Nc1ccccc1N=C2N1CCN(C)CC1` [olanzapine], the “AMPA-induced current of the control” value in experiment [3] (3 nM olanzapine alone) is “about 100%”.

The values above are taken from US12023331B2 (priority 2018, dated 2024).
